What was measured:
[1] = target: recombinant human FLAP protein (Homo sapiens (Human), UniProt P20292); experiment: FLAP binding assay (Scintillation Proximity Assay, displacement of [125I]L-691,831); settings: read-out: FLAP SPA IC50
Procedure: Assessment of Biological Properties 1. Binding Assay: Compounds are assessed for the ability to bind to FLAP in a binding assay that measures compound-specific displacement of an iodinated (^125I) FLAP inhibitor via a Scintillation Proximity Assay format (adapted from S. Charleson et al., Mol. Pharmacol., 1992, 41, 873-879). […] The cells are lysed with a Dounce homogenizer and the material is centrifuged at 10,000×g for 10 minutes. The supernatant is then collected and centrifuged at 100,000×g for 60 minutes. To prepare membrane protein for an assay, an aliquot of the 100,000×g pellet is resuspended in 1 ml of buffer A, Dounce homogenized, and finally subjected to polytron mixing (30 seconds). […] Mol. Pharmacol., 41, 873-879, 1992) and finally 50 μl of the bead/protein mixture. (final concentrations: beads, 200 μg/well; protein, 5 μg/well; […] The plates are shaken for 2 h before reading on a Microbeta plate reader.

[2] = test system: synthesis of LTB4 in human whole blood; experiment: Human whole blood LTB4 production inhibition assay; assay type: cell-based; settings: calcimycin stimulated, read-out: hWB LTB4 IC50
Procedure: Compounds are additionally tested in a human whole blood assay to determine their ability to inhibit the synthesis of LTB4 in a cellular system. Compounds are combined with heparinized human whole blood and incubated for 15 minutes at 37° C. Calcimycin (20 μM final, prepared in phosphate-buffered saline, pH 7.4) is then added and the mixture is incubated for another 30 minutes at 37° C. The samples are centrifuged for 5 min at low speed (1500×g) and the plasma layer is removed. Plasma LTB4 concentrations are then measured using an antibody-based homogenous time-resolved fluorescence method (CisBio, Bedford, Mass.).

Sequence of recombinant human FLAP protein (P20292 whole entry): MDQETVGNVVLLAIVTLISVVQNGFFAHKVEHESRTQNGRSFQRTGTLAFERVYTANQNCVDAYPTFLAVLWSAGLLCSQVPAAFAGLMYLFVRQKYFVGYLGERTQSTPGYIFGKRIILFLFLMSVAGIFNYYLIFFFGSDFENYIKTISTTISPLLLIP

Compound	IC50 [1]	IC50 [2]
COC(=O)[C@@H]1CCCN1c1ccc(-c2nc(C3(c4ccc(-c5cnc(N)nc5)nc4)CCC3)no2)cn1 [Example 36, methyl 1-[5-(3-{1-[6-(2-aminopyrimidin-5-yl)pyridin-3-yl]cyclobutyl}-1,2,4-oxadiazol-5-yl)pyridin-2-yl]-L-prolinate]	5.9 nM	1400 nM
Cn1cnnc1-c1nc(C2(c3ccc(-c4cnc(N)nc4)nc3)CCC2)no1 [Example 37, 5-(5-{1-[5-(4-methyl-4H-1,2,4-triazol-3-yl)-1,2,4-oxadiazol-3-yl]cyclobutyl}pyridin-2-yl)pyrimidin-2-amine]	110 nM	790 nM
COC(=O)[C@H]1CNCCN1c1ccc(-c2nc(C3(c4ccc(-c5cnc(N)nc5)nc4)CCC3)no2)cn1 [Example 38, methyl (2R)-1-[5-(3-{1-[6-(2-aminopyrimidin-5-yl)pyridin-3-yl]cyclobutyl}-1,2,4-oxadiazol-5-yl)pyridin-2-yl]piperazine-2-carboxylate]	3.2 nM	75 nM
COC(=O)[C@H]1CN(c2ccc(-c3nc(C4(c5ccc(-c6cnc(N)nc6)nc5)CCC4)no3)cn2)CCN1 [Example 40, methyl (2R)-4-[5-(3-{1-[6-(2-aminopyrimidin-5-yl)pyridin-3-yl]cyclobutyl}-1,2,4-oxadiazol-5-yl)pyridin-2-yl]piperazine-2-carboxylate]	3.3 nM	92 nM
Nc1ncc(-c2ccc(C3(c4noc(-c5ccc(N6CCN[C@H](C(=O)O)C6)nc5)n4)CCC3)cn2)cn1 [Example 41, (2S)-4-[5-(3-{1-[6-(2-aminopyrimidin-5-yl)pyridin-3-yl]cyclobutyl}-1,2,4-oxadiazol-5-yl)pyridin-2-yl]piperazine-2-carboxylic acid]	7.7 nM	> 5000 nM
Nc1ncc(-c2ccc(C3(c4noc(-c5ccc(N6CCN[C@@H](C(=O)O)C6)nc5)n4)CCC3)cn2)cn1 [Example 42, (2R)-4-[5-(3-{1-[6-(2-aminopyrimidin-5-yl)pyridin-3-yl]cyclobutyl}-1,2,4-oxadiazol-5-yl)pyridin-2-yl]piperazine-2-carboxylic acid]	7.7 nM	> 5000 nM
Nc1ncc(-c2ccc(C3(c4noc(-c5ccc(N6CC[C@@H](O)C6)nc5)n4)CCC3)cn2)cn1 [Example 43, (3R)-1-[5-(3-{1-[6-(2-aminopyrimidin-5-yl)pyridin-3-yl]cyclobutyl}-1,2,4-oxadiazol-5-yl)pyridin-2-yl]pyrrolidin-3-ol]	1.2 nM	170 nM
C[C@@H](O)CNc1ccc(-c2nc(C3(c4ccc(-c5cnc(N)nc5)nc4)CCC3)no2)cn1 [Example 44, (2R)-1-{[5-(3-{1-[6-(2-aminopyrimidin-5-yl)pyridin-3-yl]cyclobutyl}-1,2,4-oxadiazol-5-yl)pyridin-2-yl]amino}propan-2-ol]	2.7 nM	100 nM
Nc1ncc(-c2ccc(C3(c4noc(-c5ccc(N6CCC[C@@H]6CO)nc5)n4)CCC3)cn2)cn1 [Example 45, {(2R)-1-[5-(3-{1-[6-(2-aminopyrimidin-5-yl)pyridin-3-yl]cyclobutyl}-1,2,4-oxadiazol-5-yl)pyridin-2-yl]pyrrolidin-2-yl}methanol]	3.1 nM	750 nM
C[C@H](O)CNc1ccc(-c2nc(C3(c4ccc(-c5cnc(N)nc5)nc4)CCC3)no2)cn1 [Example 46, (2S)-1-{[5-(3-{1-[6-(2-aminopyrimidin-5-yl)pyridin-3-yl]cyclobutyl}-1,2,4-oxadiazol-5-yl)pyridin-2-yl]amino}propan-2-ol]	2.4 nM	110 nM
CCOC(=O)CCN1CCN(c2ccc(-c3nc(C4(c5ccc(-c6cnc(N)nc6)nc5)CCC4)no3)cn2)CC1 [Example 47, ethyl 3-{4-[5-(3-{1-[6-(2-aminopyrimidin-5-yl)pyridin-3-yl]cyclobutyl}-1,2,4-oxadiazol-5-yl)pyridin-2-yl]piperazin-1-yl}propanoate]	3.4 nM	170 nM
Nc1ncc(-c2ccc(C3(c4noc(-c5ccc(N6CC[C@H](O)C6)nc5)n4)CCC3)cn2)cn1 [Example 48, (3S)-1-[5-(3-{1-[6-(2-aminopyrimidin-5-yl)pyridin-3-yl]cyclobutyl}-1,2,4-oxadiazol-5-yl)pyridin-2-yl]pyrrolidin-3-ol]	2.2 nM	140 nM
Nc1ncc(-c2ccc(C3(c4noc(-c5ccc(N6CCS(=O)(=O)CC6)nc5)n4)CCC3)cn2)cn1 [Example 49, 5-[5-(1-{5-[6-(1,1-dioxidothiomorpholin-4-yl)pyridin-3-yl]-1,2,4-oxadiazol-3-yl}cyclobutyl)pyridin-2-yl]pyrimidin-2-amine]	3.7 nM	180 nM
CS(=O)(=O)N1CCN(c2ccc(-c3nc(C4(c5ccc(-c6cnc(N)nc6)nc5)CCC4)no3)cn2)CC1 [Example 50, 5-{5-[1-(5-{6-[4-(methylsulfonyl)piperazin-1-yl]pyridin-3-yl}-1,2,4-oxadiazol-3-yl)cyclobutyl]pyridin-2-yl}pyrimidin-2-amine]	2.7 nM	150 nM
CS(=O)(=O)CCNc1ccc(-c2nc(C3(c4ccc(-c5cnc(N)nc5)nc4)CCC3)no2)cn1 [Example 51, 5-(5-{1-[5-(6-{[2-(methylsulfonyl)ethyl]amino}pyridin-3-yl)-1,2,4-oxadiazol-3-yl]cyclobutyl}pyridin-2-yl)pyrimidin-2-amine]	4.8 nM	150 nM
CS(=O)(=O)C1CCN(c2ccc(-c3nc(C4(c5ccc(-c6cnc(N)nc6)nc5)CCC4)no3)cn2)C1 (stereo not shown) [Example 52, 5-{5-[1-(5-{6-[3-(methylsulfonyl)pyrrolidin-1-yl]pyridin-3-yl}-1,2,4-oxadiazol-3-yl)cyclobutyl]pyridin-2-yl}pyrimidin-2-amine]	2.6 nM	180 nM
Nc1ncc(-c2ccc(C3(c4noc(-c5ccc(N6CCN(CCC(=O)O)CC6)nc5)n4)CCC3)cn2)cn1 [Example 53, 3-{4-[5-(3-{1-[6-(2-aminopyrimidin-5-yl)pyridin-3-yl]cyclobutyl}-1,2,4-oxadiazol-5-yl)pyridin-2-yl]piperazin-1-yl}propanoic acid]	2.6 nM	2600 nM
CC(C)(O)Cn1cc(-c2nc(C3(c4ccc(-c5cnc(N)nc5)nc4)CCC3)no2)cn1 [Example 54, 1-[4-(3-{1-[6-(2-aminopyrimidin-5-yl)pyridin-3-yl]cyclobutyl}-1,2,4-oxadiazol-5-yl)-1H-pyrazol-1-yl]-2-methylpropan-2-ol]	28 nM	120 nM
Nc1ncc(-c2ccc(C3(c4noc(-c5cnn(C6COC6)c5)n4)CCC3)cn2)cn1 [Example 55, 5-[5-(1-{5-[1-(oxetan-3-yl)-1H-pyrazol-4-yl]-1,2,4-oxadiazol-3-yl}-cyclobutyl)pyridin-2-yl]pyrimidin-2-amine]	13 nM	52 nM
CNC(=O)Cn1cc(-c2nc(C3(c4ccc(-c5cnc(N)nc5)nc4)CCC3)no2)cn1 [Example 58, 2-[4-(3-{1-[6-(2-aminopyrimidin-5-yl)pyridin-3-yl]cyclobutyl}-1,2,4-oxadiazol-5-yl)-1H-pyrazol-1-yl]-N-methylacetamide]	22 nM	250 nM
CN(C)C(=O)Cn1cc(-c2nc(C3(c4ccc(-c5cnc(N)nc5)nc4)CCC3)no2)cn1 [Example 59, 2-[4-(3-{1-[6-(2-amino-pyrimidin-5-yl)-pyridin-3-yl]-cyclobutyl}-1,2,4-oxadiazol-5-yl)-pyrazol-1-yl]-N,N-dimethyl-acetamide]	83 nM	610 nM
Nc1ncc(-c2ccc(C3(c4noc(-c5cnc(N6CCNCC6)cn5)n4)CCC3)cn2)cn1 [Example 60, 5-[5-(1-{5-[5-(piperazin-1-yl)pyrazin-2-yl]-1,2,4-oxadiazol-3-yl}cyclobutyl)pyridin-2-yl]pyrimidin-2-amine]	7.9 nM	150 nM
Nc1ncc(-c2ccc(C3(c4noc(-c5ccc(N6CCNCC6)cc5)n4)CCC3)cn2)cn1 [Example 62, 5-[5-(1-{5-[4-(piperazin-1-yl)phenyl]-1,2,4-oxadiazol-3-yl}cyclobutyl)pyridin-2-yl]pyrimidin-2-amine]	2.6 nM	72 nM
CCn1cc(-c2nc(C3(c4ccc(-c5cnc(N)nc5)nc4)CCC3)no2)cn1 [Example 63, 5-(5-{1-[5-(1-ethyl-1H-pyrazol-4-yl)-1,2,4-oxadiazol-3-yl]cyclobutyl}pyridin-2-yl)pyrimidin-2-amine]	8.8 nM	190 nM
CC(C)n1cc(-c2nc(C3(c4ccc(-c5cnc(N)nc5)nc4)CCC3)no2)cn1 [Example 64, 5-[5-(1-{5-[1-(propan-2-yl)-1H-pyrazol-4-yl]-1,2,4-oxadiazol-3-yl}cyclobutyl)pyridin-2-yl]pyrimidin-2-amine]	7.2 nM	170 nM
CC(C)(C(=O)O)n1cc(-c2nc(C3(c4ccc(-c5cnc(N)nc5)nc4)CCC3)no2)cn1 [Example 65, 2-[4-(3-{1-[6-(2-aminopyrimidin-5-yl)pyridin-3-yl]cyclobutyl}-1,2,4-oxadiazol-5-yl)-1H-pyrazol-1-yl]-2-methylpropanoic acid]	590 nM	> 5000 nM

From patent US8575201B2 (Boehringer Ingelheim International GmbH, priority 2010, dated 2013)
